Measurements published in ChEMBL document CHEMBL4033732, “Identification and synthesis of novel inhibitors of mycobacterium ATP synthase” (Bioorg Med Chem Lett, 2017).
In brackets after ≈: the same amount, converted by molar mass.

Key:
[1] = Inhibition of ATP synathse in Mycobacterium smegmatis str. MC2 155 inverted membrane vesicles assessed as ATP formation pre-incubated for 30 mins before NADH-ADP-phosphate buffer cocktail addition and measured after 60 mins by kinase glow reagent based assay; parameters: species or system Mycolicibacterium smegmatis MC2 155
[2] = system: Mycobacterium tuberculosis; assay: Antimicrobial activity against Mycobacterium tuberculosis H37Rv assessed as reduction in microbial growth incubated for 5 days by CLSI protocol based assay; assay type: functional; settings: 120 h
[3] = system: HeLa; assay: Cytotoxicity against human HeLa cells incubated for 48 hrs by MTT assay; assay type: functional
[4] = Lipophilicity, log D of the compound; assay type: physicochemical; settings: octanol/water
[5] = Solubility in pH 6.8 buffer; assay type: physicochemical
[6] = biological target: T1, CYP1A2 (Homo sapiens, UniProt P05177); assay: Inhibition of CYP1A2 in human liver microsomes at 10 uM; assay type: ADME
T1 sequence (P05177 whole entry): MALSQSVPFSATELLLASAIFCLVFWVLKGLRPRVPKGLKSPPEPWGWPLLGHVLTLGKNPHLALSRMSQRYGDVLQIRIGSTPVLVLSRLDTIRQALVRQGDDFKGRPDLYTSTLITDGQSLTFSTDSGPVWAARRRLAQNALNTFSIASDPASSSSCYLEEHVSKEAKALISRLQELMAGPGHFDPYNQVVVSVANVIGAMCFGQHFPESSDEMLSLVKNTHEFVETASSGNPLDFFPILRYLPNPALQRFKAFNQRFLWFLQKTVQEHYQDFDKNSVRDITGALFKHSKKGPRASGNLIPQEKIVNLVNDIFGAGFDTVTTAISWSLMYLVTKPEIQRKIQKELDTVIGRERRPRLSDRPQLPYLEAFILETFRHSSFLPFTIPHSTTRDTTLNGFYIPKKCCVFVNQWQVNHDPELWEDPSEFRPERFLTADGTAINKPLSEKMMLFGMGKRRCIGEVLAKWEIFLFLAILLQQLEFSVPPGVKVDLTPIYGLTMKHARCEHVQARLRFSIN

[7] = biological target: CYP2C9 (Homo sapiens, UniProt P11712); assay: Inhibition of CYP2C9 in human liver microsomes at 10 uM; assay type: ADME
[8] = biological target: CYP2C19 (Homo sapiens, UniProt P33261); assay: Inhibition of CYP2C19 in human liver microsomes at 10 uM; assay type: ADME
[9] = biological target: CYP2D6 (Homo sapiens, UniProt P10635); assay: Inhibition of CYP2D6 in human liver microsomes at 10 uM; assay type: ADME
[10] = biological target: CYP3A4 (Homo sapiens, UniProt P08684); assay: Inhibition of CYP3A4 in human liver microsomes at 10 uM; assay type: ADME
Sequence of CYP3A4 (P08684 whole entry): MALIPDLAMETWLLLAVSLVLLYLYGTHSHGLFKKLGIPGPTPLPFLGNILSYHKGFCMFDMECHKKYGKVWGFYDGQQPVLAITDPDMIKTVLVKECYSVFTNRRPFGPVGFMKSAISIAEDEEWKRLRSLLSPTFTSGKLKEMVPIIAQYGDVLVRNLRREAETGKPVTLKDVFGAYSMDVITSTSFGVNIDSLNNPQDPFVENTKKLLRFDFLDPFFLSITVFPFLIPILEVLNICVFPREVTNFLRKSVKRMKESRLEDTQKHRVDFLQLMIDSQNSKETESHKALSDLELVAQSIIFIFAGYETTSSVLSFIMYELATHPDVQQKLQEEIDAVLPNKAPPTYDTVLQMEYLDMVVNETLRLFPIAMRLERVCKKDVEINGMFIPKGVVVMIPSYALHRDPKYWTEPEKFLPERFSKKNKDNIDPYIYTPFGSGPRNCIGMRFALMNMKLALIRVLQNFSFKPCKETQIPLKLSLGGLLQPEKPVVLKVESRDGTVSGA

Sequence of CYP2C9 (P11712 whole entry): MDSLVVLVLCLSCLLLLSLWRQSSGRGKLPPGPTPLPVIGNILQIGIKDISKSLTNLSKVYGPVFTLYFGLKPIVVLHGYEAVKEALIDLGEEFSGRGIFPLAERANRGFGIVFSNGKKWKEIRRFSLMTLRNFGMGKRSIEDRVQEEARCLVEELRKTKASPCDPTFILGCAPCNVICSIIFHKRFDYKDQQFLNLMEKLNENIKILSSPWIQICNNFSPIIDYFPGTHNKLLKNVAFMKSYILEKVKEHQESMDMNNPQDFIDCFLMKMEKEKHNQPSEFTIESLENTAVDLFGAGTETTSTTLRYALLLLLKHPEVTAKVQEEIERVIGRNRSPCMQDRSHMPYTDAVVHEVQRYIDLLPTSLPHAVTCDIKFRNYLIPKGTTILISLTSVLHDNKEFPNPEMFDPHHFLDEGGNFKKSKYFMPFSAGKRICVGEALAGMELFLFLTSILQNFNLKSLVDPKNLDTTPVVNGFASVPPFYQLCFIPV
Sequence of CYP2C19 (P33261 whole entry): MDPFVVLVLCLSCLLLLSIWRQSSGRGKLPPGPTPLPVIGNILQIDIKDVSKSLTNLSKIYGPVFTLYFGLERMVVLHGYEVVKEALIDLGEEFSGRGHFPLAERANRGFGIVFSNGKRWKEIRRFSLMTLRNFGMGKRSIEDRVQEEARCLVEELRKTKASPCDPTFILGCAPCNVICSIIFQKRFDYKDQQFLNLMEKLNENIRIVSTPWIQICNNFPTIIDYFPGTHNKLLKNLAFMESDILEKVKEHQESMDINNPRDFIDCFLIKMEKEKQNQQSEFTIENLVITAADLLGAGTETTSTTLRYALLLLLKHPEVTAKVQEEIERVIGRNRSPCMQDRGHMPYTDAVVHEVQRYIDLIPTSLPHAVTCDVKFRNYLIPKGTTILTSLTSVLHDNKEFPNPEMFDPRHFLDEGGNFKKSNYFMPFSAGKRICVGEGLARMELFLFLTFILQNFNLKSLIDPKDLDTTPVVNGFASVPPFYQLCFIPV
Sequence of CYP2D6 (P10635 whole entry): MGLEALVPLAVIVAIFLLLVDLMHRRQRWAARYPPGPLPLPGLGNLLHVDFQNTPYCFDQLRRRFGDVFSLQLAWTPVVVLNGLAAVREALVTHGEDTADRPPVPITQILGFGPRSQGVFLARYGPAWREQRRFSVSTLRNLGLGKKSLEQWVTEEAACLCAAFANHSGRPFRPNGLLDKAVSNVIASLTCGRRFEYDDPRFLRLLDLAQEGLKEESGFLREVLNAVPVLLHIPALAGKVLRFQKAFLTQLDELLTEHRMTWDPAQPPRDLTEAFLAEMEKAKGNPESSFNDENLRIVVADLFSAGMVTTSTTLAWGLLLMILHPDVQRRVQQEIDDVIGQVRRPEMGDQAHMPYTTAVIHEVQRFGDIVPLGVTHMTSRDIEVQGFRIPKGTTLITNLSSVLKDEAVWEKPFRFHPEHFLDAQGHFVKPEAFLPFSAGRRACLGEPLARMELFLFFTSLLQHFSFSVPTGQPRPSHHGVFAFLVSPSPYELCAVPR

| Compound | IC50 [1] | MIC [2] | GI50 [3] | logD [4] | solubility [5] | inhibition at 10 µM [6] | inhibition at 10 µM [7] | inhibition at 10 µM [8] | inhibition at 10 µM [9] | inhibition at 10 µM [10] |
| --- | --- | --- | --- | --- | --- | --- | --- | --- | --- | --- |
| CC(c1ccc(Cl)c(Cl)c1)N1CCn2nc(C(=O)N3CCCCC3)cc2C1=O (racemic) | > 10000 nM | > 32 µg/mL | – | – | – | – | – | – | – | – |
| CC(C)(C)c1ccc(Cn2ccn3nc(C(=O)N4CCCCC4)cc3c2=O)cc1 | 280 nM | 2 µg/mL | 32 µg/mL (≈ 81.4 µM) | 3.7 | < 1 µg/mL | 0% | 46% | 31% | 14% | 0% |
| CN(C)CCOc1ccc(NC(=O)c2cc3n(n2)CCN(Cc2ccc(Cl)c(Cl)c2)C3=O)cc1 | > 10000 nM | > 32 µg/mL | – | – | – | – | – | – | – | – |
| Cc1cccc(CN2CCn3nc(C(=O)N4CCCCC4)cc3C2=O)c1 | 42 nM | 16 µg/mL | > 100 µg/mL | – | – | – | – | – | – | – |
| CN(C)C(=O)c1cc2n(n1)CCN(Cc1ccc(Cl)c(Cl)c1)C2=O | > 10000 nM | > 32 µg/mL | – | – | – | – | – | – | – | – |
| O=C(c1cc2n(n1)C(O)CN(Cc1ccc(Cl)c(Cl)c1)C2=O)N1CCCCC1 (stereo not drawn) | 1050 nM | 32 µg/mL | > 100 µg/mL | 3.1 | < 1 µg/mL | 1% | 24% | 31% | 21% | 0% |
| Cc1ccc(CN2CCn3nc(C(=O)N4CCCCC4)cc3C2=O)cc1 | 520 nM | 8 µg/mL | > 100 µg/mL | – | – | – | – | – | – | – |
| O=C(c1cc2n(n1)CCN(Cc1cccc(Cl)c1)C2=O)N1CCCCC1 | 110 nM | 8 µg/mL | > 100 µg/mL | – | – | – | – | – | – | – |
| O=C(c1cc2n(n1)CCN(c1ccc(Cl)c(Cl)c1)C2=O)N1CCCCC1 | > 10000 nM | > 32 µg/mL | – | – | – | – | – | – | – | – |
| O=C(c1cc2c(=O)n(Cc3ccc(Cl)c(Cl)c3)ccn2n1)N1CCCCC1 | 810 nM | 4 µg/mL | > 100 µg/mL | 3.5 | < 1 µg/mL | 0% | 28% | 11% | 30% | 0% |
| O=C(c1cc2n(n1)CCN(Cc1cccc(-c3ccccc3)c1)C2=O)N1CCCCC1 | 46 nM | 8 µg/mL | > 100 µg/mL | – | – | – | – | – | – | – |
| CC(C)(C)OC(=O)N1CCN(C(=O)c2cc3n(n2)CCN(Cc2ccc(Cl)c(Cl)c2)C3=O)CC1 | > 10000 nM | > 32 µg/mL | – | – | – | – | – | – | – | – |
| CC(C)(C)c1ccc(CN2CC(O)n3nc(C(=O)N4CCCCC4)cc3C2=O)cc1 (stereo not drawn) | 3300 nM | 16 µg/mL | > 100 µg/mL | 3 | 40 µg/mL (≈ 97.4 µM) | 0% | 29% | 4% | 48% | 0% |
| CN1CCn2nc(C(=O)N3CCCCC3)cc2C1=O | > 10000 nM | > 32 µg/mL | – | – | – | – | – | – | – | – |
| O=C(c1cc2n(n1)CCN(Cc1ccc(Cl)c(Cl)c1)C2=O)N1CCC(c2ccccc2)CC1 | > 10000 nM | > 32 µg/mL | – | – | – | – | – | – | – | – |
| CC(C)(C)c1ccc(CN2CCn3nc(C(=O)N4CCCCC4)cc3C2=O)cc1 | 290 nM | 8 µg/mL | > 100 µg/mL | 4 | 54 µg/mL (≈ 137 µM) | 17% | 19% | 0% | 0% | 0% |
| CC(=O)N1CCN(C(=O)c2cc3n(n2)CCN(Cc2ccc(Cl)c(Cl)c2)C3=O)CC1 | > 10000 nM | > 32 µg/mL | – | – | – | – | – | – | – | – |
| CN1CCN(C(=O)c2cc3n(n2)CCN(Cc2ccc(Cl)c(Cl)c2)C3=O)CC1 | > 10000 nM | > 32 µg/mL | – | – | – | – | – | – | – | – |
| COc1nc2ccc(Br)cc2cc1C(c1ccccc1)C(O)(CCN(C)C)c1cccc2ccccc12 (racemic) | 20 nM | 0.25 µg/mL | – | – | – | – | – | – | – | – |
| O=C(c1cc2n(n1)CCN(Cc1ccccc1)C2=O)N1CCCCC1 | > 10000 nM | > 32 µg/mL | – | – | – | – | – | – | – | – |
| O=C(c1cc2n(n1)CCN(Cc1ccc(Cl)c(Cl)c1)C2=O)N1CCCC1 | > 10000 nM | > 32 µg/mL | – | – | – | – | – | – | – | – |
| O=C(c1cc2n(n1)CCN(Cc1ccc(Cl)c(Cl)c1)C2=O)N1CCNCC1 | > 10000 nM | > 32 µg/mL | – | – | – | – | – | – | – | – |
| O=C(c1cc2n(c1)CCN(Cc1ccc(Cl)c(Cl)c1)C2=O)N1CCCCC1 | 1550 nM | 8 µg/mL | > 100 µg/mL | – | – | – | – | – | – | – |
| O=C(c1cc2n(n1)CCCN(Cc1ccc(Cl)c(Cl)c1)C2=O)N1CCCCC1 | 290 nM | 8 µg/mL | > 100 µg/mL | 2.1 | 109 µg/mL (≈ 259 µM) | 13% | 13% | 0% | 0% | 0% |
| CC(C)(C)c1ccc(Cn2ccn3cc(C(=O)N4CCCCC4)nc3c2=O)cc1 | 4700 nM | > 32 µg/mL | > 100 µg/mL | 4.1 | 2.7 µg/mL (≈ 6.88 µM) | 0% | 2% | 0% | 6% | 0% |
| O=C(c1cn2ccn(Cc3ccc(Cl)c(Cl)c3)c(=O)c2n1)N1CCCCC1 | 520 nM | 4 µg/mL | > 100 µg/mL | 3.6 | 1.2 µg/mL (≈ 2.96 µM) | 3% | 0% | 6% | 0% | 0% |
| O=C(c1cc2n(n1)CCN(Cc1ccc(Cl)cc1)C2=O)N1CCCCC1 | 1050 nM | 8 µg/mL | > 100 µg/mL | – | – | – | – | – | – | – |
| O=C(c1cc2n(n1)CCN(CC1CCCCC1)C2=O)N1CCCCC1 | > 10000 nM | > 32 µg/mL | – | – | – | – | – | – | – | – |
| O=C(c1cc2n(n1)CCN(Cc1ccccc1Cl)C2=O)N1CCCCC1 | > 10000 nM | > 32 µg/mL | – | – | – | – | – | – | – | – |
| O=C(c1cc2n(n1)CCN(Cc1ccc(Cl)c(Cl)c1)C2=O)N1CCCCC1 | 270 nM | 16 µg/mL | > 100 µg/mL | 3.8 | 7.2 µg/mL (≈ 17.7 µM) | 13% | 11% | 0% | 0% | 16% |
